In patent US12246012B2, “Method for treating nervous system injuries using boldine and derivatives thereof” (United States Government as Represented by the Department …, priority 2020, dated 2025):

What was measured:
caspase-1 mRNA = experiment: Hippocampus mRNA levels by qPCR after contusion SCI; type: in vivo, mouse; conditions: contusion SCI mice, 13 dpi, N=3
Protocol: (§1) FIGS. 2A-D show plots of mRNA levels of Cx43 (2A), NLRP3 (2B), ASC (2C), and caspase-1 (2D) in the hippocampus of sham mice and those having contusion spinal cord injury (SCI) with and without boldine treatment. mRNA levels in the hippocampus were determined by qPCR at 13 dpi using tissues from mice that underwent laminectomy (Sham) or moderate (50 kdyne) contusion SCI. ((*p<0.05 by one-way ANOVA, N=3 per group).
(§2) In rats, a spinal cord injury (SCI) can result in cognitive deficits that are associated with activation in brain regions linked to pain processing and cognition of microglia and astrocytes as well as associated with upregulation of a gene involved in inflammation (Wu et al. 2013; Wu et al. 2014). Such changes may drive central pain in neuropathic pain syndromes. To determine whether boldine mitigates such changes, mRNA expression of Cx43 and genes involved in inflammasome assembly and activity were determined in mouse brains. While SCI increased caspase-1 in the hippocampus. […] These studies indicate that boldine can reduce neuropathic pain following spinal cord injury (SCI) associated with reductions in brain and spinal cord of expression of pro-inflammatory cytokines and chemokines linked to pathological pain.

Ccl2 = experiment: Chemokine gene expression in spinal cord tissue of SCI mice; type: in vivo, mouse; conditions: C57B6 SCI animals at 14-dpi, vs vehicle; N=3, ANOVA p=0.091
Protocol: (§3) Additional studies were performed using tissues harvested from the mice for which behavioral testing data showing effects of boldine on Basso Mouse Scale and ladder rung walk test were collected. RNA-seq analysis was performed on spinal cord segments from SCI mice at 14-dpi treated with boldine or vehicle starting at 4-dpi (N=3 for each). Differentially expressed genes (DEGs) were clustered by their gene ontology (GO) and enrichment of GO terms was tested using a Fisher's exact test (GeneSCF v1.1-p2). Enriched DEGs were involved in pathways related to neutrophil activation and aggregation, inflammatory responses and astrocyte development.
(§4) Genes from a list of the top DEGs from the RNA-seq analysis were considered and tested for differences in gene expression of pro-inflammatory chemokines Ccl2 and Ccl3 between vehicle and boldine treated spinal cord tissues from C57B6 SCI animals at 14-dpi. Laminectomy-only (Sham) animals as were used as controls.

Ccl3 = experiment: as above; type: in vivo, mouse; conditions: C57B6 SCI animals at 14-dpi, vs vehicle; N=3, ANOVA p=0.085
Protocol: as §3, §4

[1] = test system: CCL2 mRNA in LPS astrocytes; experiment: mRNA expression after LPS-induced inflammatory response in astrocytic primary cell cultures; type: cell-based; conditions: compared to vehicle-treated LPS astrocytes
Protocol: To model effects of boldine on release of chemokines and other mediators, changes in mRNA expression after lipopolysaccharide (LPS)-induced inflammatory responses were analyzed using astrocytic primary cell cultures.

CCL2 mRNA = experiment: Thalamus mRNA levels by qPCR after contusion SCI; type: in vivo, mouse; conditions: compared to vehicle-treated animals after contusion SCI; FIG. 3 (thalamus); N=3
Protocol: as §1
(§5) FIGS. 3A-B are plots showing that boldine normalizes spinal cord injury (SCI)-induced elevation of IL-1B mRNA levels in the thalamus. mRNA levels were determined as described with reference to FIG. 2. (A) IL-1β; (B) CCL2. (*p<0.05 by ANOVA, N=3).
as §2

IL-1β mRNA = experiment: Thalamus mRNA levels by qPCR after contusion SCI; type: in vivo, mouse
Protocol: as §1, §5, §2

[2] = test system: C57BL6 mice, moderate contusion spinal cord injury (SCI) at T9-T10; experiment: Ladder rung walk test (LRWT) after moderate contusion SCI; type: in vivo, mouse; conditions: oral, twice daily starting at 4-dpi; at 13-dpi; vehicle-treated SCI mice 83%; N=5
Protocol: (§6) FIGS. 1A-C show the effects of boldine on locomotor functional recovery of C57BL6 mice after moderate spinal cord injury (SCI) at the interspace between thoracic vertebrae T9 and T10.
(§7) Function was determined by behavioral testing using both the Basso Mouse Scale (BMS) score (FIG. 1A) and the ladder rung walk test (LRWT) (FIG. 1B). While sham mice had normal BMS scores a few days after laminectomy, the BMS scores for contusion-SCI mice were much lower. […] (N=5; ANOVA *p<0.05 and **p<0.005 respectively).

[3] = test system: neurite outgrowth marker GAP-43; experiment: Immunofluorescence staining of injured spinal cords; type: in vivo, mouse; conditions: injured spinal cord transverse sections, SCI mice at 14-dpi, vs vehicle
Protocol: Immunofluorescence staining was performed on injured spinal cords of vehicle and boldine treated SCI mice at 14-dpi. 30-micron transverse sections were used to evaluate differences in the labeling of the neurite outgrowth marker GAP-43.

[4] = test system: C57BL6 mice, moderate contusion spinal cord injury (SCI) at T9-T10; experiment: Basso Mouse Scale (BMS) open-field locomotor function after moderate contusion SCI; type: in vivo; conditions: oral, twice daily starting at 4-dpi; at 13 dpi; vs vehicle-treated SCI mice; N=5
Protocol: as §6, §7

Question: What does the source list for COc1cc2c(cc1O)CC1c3c(cc(O)c(OC)c3-2)CCN1C (racemic) [boldine]?
Answer: SCI-induced increase of caspase-1 mRNA in the hippocampus (caspase-1 mRNA): appeared to be corrected; Ccl2 gene expression in spinal cord tissue (Ccl2): apparent decrease which did not reach our threshold for significance; Ccl3 gene expression in spinal cord tissue (Ccl3): apparent decrease which did not reach our threshold for significance; reduction of mRNA levels of CCL2 [1]: 38%; reduction of mRNA levels of CCL2 (CCL2 mRNA): 47.2%; reduction of mRNA levels of IL-10 (IL-1β mRNA; compared to vehicle-treated animals after contusion SCI, FIG. 3 (thalamus), N=3): 65.5%; SCI-induced elevation of IL-1B mRNA levels in the thalamus (IL-1β mRNA; contusion SCI mice, qPCR, N=3 (FIG. 3 legend)): normalizes; LRWT incorrect steps [2]: 13%; GAP43 immunofluorescence [3]: dramatically increased; BMS scores [4]: significantly increased
